# Patent US20250368652A1, “MICROBIOCIDAL BICYCLIC HETEROCYCLIC CARBOXAMIDE DERIVATIVES” (SYNGENTA CROP PROTECTION AG, priority 2022, published 2025)
# Experiments:
# [1] = tested on: Alternaria solani; experiment: Alternaria solani / tomato / leaf disc (early blight); type: in vivo; settings: 200 ppm; tomato leaf disks cv. Baby, inoculated 2 days after application; compared to untreated control
# Description: Leaf disks or leaf segments of various plant species are cut from plants grown in a greenhouse. The cut leaf disks or segments are placed in multiwell plates (24-well format) onto water agar. The leaf disks are sprayed with a test solution before (preventative) or after (curative) inoculation. Compounds to be tested are prepared as DMSO solutions (max. 10 mg/mL) which are diluted to the appropriate concentration with 0.025% Tween20 just before spraying. The inoculated leaf disks or segments are incubated under defined conditions (temperature, relative humidity, light, etc.) according to the respective test system. A single evaluation of disease level is carried out 3 to 14 days after inoculation, depending on the pathosystem. Percent disease control relative to the untreated check leaf disks or segments is then calculated. Tomato leaf disks cv. Baby are placed on agar in multiwell plates (24-well format) and sprayed with the formulated test compound diluted in water. The leaf disks are inoculated with a spore suspension of the fungus 2 days after application. The inoculated leaf disks are incubated at 23° C./21° C.
# [2] = tested on: Botryotinia fuckeliana (Botrytis cinerea); experiment: Botryotinia fuckeliana (Botrytis cinerea) / liquid culture (gray mould); type: cell-based; settings: liquid culture (Vogels broth), growth inhibition photometrically 3-4 days after application, compared to untreated control
# Description: (§1) Mycelia fragments or conidia suspensions of a fungus prepared either freshly from liquid cultures of the fungus or from cryogenic storage, are directly mixed into nutrient broth. DMSO solutions of the test compound (max. 10 mg/mL) are diluted with 0.025% Tween20 by a factor of 50 and 10 μL of this solution is pipetted into a microtiter plate (96-well format). The nutrient broth containing the fungal spores/mycelia fragments is then added to give an end concentration of the tested compound. The test plates are incubated in the dark at 24° C. and 96% relative humidity. The inhibition of fungal growth is determined photometrically after 2 to 7 days, depending on the pathosystem, and percent antifungal activity relative to the untreated check is calculated. Conidia of the fungus from cryogenic storage are directly mixed into nutrient broth (Vogels broth). After placing a (DMSO) solution of test compound into a microtiter plate (96-well format), the nutrient broth containing the fungal spores is added. The test plates are incubated at 24° C. and the inhibition of growth is determined photometrically 3-4 days after application.
# [3] = tested on: Glomerella lagenarium (Colletotrichum lagenarium); experiment: Glomerella lagenarium (Colletotrichum lagenarium) / liquid culture (anthracnose); type: cell-based; settings: Colletotrichum orbiculare, liquid culture (PDB), growth inhibition photometrically 3-4 days after application, compared to untreated control
# Description: as §1, with “nutrient broth (PDB potato dextrose broth). After” for “nutrient broth (Vogels broth). After”, “growth is measured photometrically 3-4” for “growth is determined photometrically 3-4”
# [4] = tested on: Pyrenophora teres; experiment: Pyrenophora teres / barley / leaf disc preventative (net blotch); type: in vivo; settings: 200 ppm, barley leaf segments cv. Hasso, inoculated 2 days after application, compared to untreated control
smiles,measurement,setting,value
"Cc1cc2ncc(Oc3cccc(C4CC4)c3)c(C(=O)NCC(F)c3ccc(Cl)cc3Cl)n2n1 (stereo not shown) [Compound P-1.13, 6-(3-cyclopropylphenoxy)-N-[2-(2,4-dichlorophenyl)-2-fluoro-ethyl]-2-methyl-pyrazolo[1,5-a]pyrimidine-7-carboxamide]",control of Alternaria solani,[1],at least 80%
same,inhibition of growth at 20 ppm,[2],≥ 80%
same,inhibition of growth at 20 ppm,[3],≥ 80%
same,control of Pyrenophora teres,[4],at least 80%
